Measured values taken from patent US20160201075A1, “REGULATOR OF ALGAL LIPID METABOLISM AND CELLULAR […] ITS APPLICATIONS” (Board of Trustees of Michigan State University, priority 2014, published 2016).

Tested on: C. reinhardtii
Test: Growth in medium with 1 μM Rapamycin (time needed for division)
Assay type: cell-based, Chlamydomonas reinhardtii
Conditions: saturating concentration of Rapamycin (1 μM)
Source text: FIGS. 3A-3D illustrates the growth of cht7—expressing cells affected by different treatments. FIG. 3A graphically illustrates growth of cht7 and parental (dw15) lines on nitrogen-replete medium (optical density (OD) at 550 nm). Doubling times are given in parentheses. The grey bar indicates the OD at which nitrogen-replete samples were taken for all experiments in this study. Averages of three biological replicates are given with standard deviations for all points being smaller than 3%. FIG. 3B graphically illustrates growth of dw15, cht7, and four independent complementation lines (C1-4) during nitrogen deprivation (−N) followed by nitrogen resupply (+N) measured at the times indicted. Insert, cultures at 24 h following nitrogen resupply. FIG. 3C graphically illustrates growth during phosphate deprivation (−P) followed by phosphate resupply (+P). FIG. 3D graphically illustrates growth in the medium with 1 μM Rapamycin (+R) followed by the removal of Rapamycin (−R). Cultures were diluted twice (a) with medium containing 1 μM Rapamycin to avoid reaching stationary phase.
Growth under different nitrogen and phosphate regimes and following Rapamycin treatment, plating and viability assays, as well as lipid assays were performed using established methods.
Growth of the cht7 mutant was normal in nitrogen-replete medium under standard conditions (FIG. 3A). […]

## CO[C@H]1C[C@@H]2CC[C@@H](C)[C@@](O)(O2)C(=O)C(=O)N2CCCC[C@H]2C(=O)O[C@H]([C@H](C)C[C@@H]2CC[C@@H](O)[C@H](OC)C2)CC(=O)[C@H](C)/C=C(\C)[C@@H](O)[C@@H](OC)C(=O)[C@H](C)C[C@H](C)/C=C/C=C/C=C/1C [Rapamycin]
cht7 mutant
  time needed for division: 30.1 h
Parental line (dw15)
  time needed for division: 23.9 h
